# System: HO-1
# Assay: HO-1 expression in donor tissues and islets after CoPP
# Format: in vivo, mice
# Details: CoPP given to the donor animal; heart, kidney, pancreas, liver and spleen
# Description: Induction of HO-1/Administration of biliverdin/bilirubin. When given to the donor, CoPPIX (20 mg/kg) was given 24 hours before islet isolation to induce HO-1 expression. To verify HO-1 expression in different organs after CoPP treatment, tissue samples are collected 24 hours after treatment and snap frozen in liquid nitrogen. Immunohistological analysis of HO-1 expression is performed using an anti-HO-1 antibody. CoPPIX (20 mg/kg) was administrated to the recipient intraperitoneally (i.p.) on day-1, 1, 3, 5 and 7. Biliverdin (50 μmol/kg) or bilirubin (8.5 μmol/kg) was given intraperitoneally to the donor one hour before islet isolation. For the recipient, biliverdin (50 μmol/kg) or bilirubin ([…]) was administered intraperitoneally either daily or twice per day from day-1 until day 13. No further treatment was given afterwards.
# Semi-Quantitative PCR. RNA was extracted using Rneasy™ Mini Kits (Qiagen Inc., CA, USA) and reverse transcribed into cDNA with the RNA PCR Kit (TaKaRa, PanVera, Madison, Wis., USA). A total of 2 μg of cDNA was amplified in a 50 μl reaction mix containing 10 μM dNTPs, […] of 5′-prime and 3′-prime oligos, 2.5 U of LA-Taq polymerase (TaKaRa) and MgCl2, specific to each primer pair used. […] PCR products (10-20 μl) were analyzed in an ethidium bromide-stained 1% agarose gel.
structure (smiles),measurement,value
"C=CC1=C(C)c2cc3[n-]c(cc4nc(cc5[n-]c(cc1n2)c(C)c5CCC(=O)[O-])C(CCC(=O)[O-])=C4C)c(C)c3C=C.[Co+2].[H+].[H+] [CoPP, Cobalt protoporphyrin]",HO-1 expression in donor tissues,HO-1 expression was observed in several different tissues
